The values that follow come from patent publication US20250129078A1, “ERBB2 INHIBITORS” (Cogent Biosciences, Inc., priority 2023, published 2025).

Molecules are shown by their SMILES. Structures can show the parent of a compound that is named as a salt. Bounds are passed on as bounds.

What is called IC50 is the concentration at which inhibition is half-maximal. A higher IC50 goes with a need for much substance.

For one test, the target named is EGFR WT (Homo sapiens (Human), UniProt P00533). Description: ErbB enzyme assay (CisBio HTRF-KinEASE-TK), EGFR WT. The format is biochemical. The settings on record: ATP at Km (25 μM), 1 h incubation. A digest of the protocol:
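HTRF KinEASE-TK kinase assay, 1 h at ambient temperature with three-fold serial compound dilutions, then 1 h detection with Sa-XL665/TK-Ab-Cryptate. IC50 is the 50 POC point of a 4-parameter logistic fit.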
Background: In TR-FRET formats the signal depends on donor and acceptor labels being close together.

The target of a further test is ErbB2 V777L (Homo sapiens (Human), UniProt P04626, V777L). Description: ErbB enzyme assay (CisBio HTRF-KinEASE-TK), ErbB2 V777L. Type of test: biochemical. A digest of the protocol:
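HTRF KinEASE-TK tyrosine-kinase read-out of substrate phosphorylation after a final 1 h at ambient temperature, from the 655/620 nm emission ratio.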

EGFR WT, sequence (P00533 25-1210): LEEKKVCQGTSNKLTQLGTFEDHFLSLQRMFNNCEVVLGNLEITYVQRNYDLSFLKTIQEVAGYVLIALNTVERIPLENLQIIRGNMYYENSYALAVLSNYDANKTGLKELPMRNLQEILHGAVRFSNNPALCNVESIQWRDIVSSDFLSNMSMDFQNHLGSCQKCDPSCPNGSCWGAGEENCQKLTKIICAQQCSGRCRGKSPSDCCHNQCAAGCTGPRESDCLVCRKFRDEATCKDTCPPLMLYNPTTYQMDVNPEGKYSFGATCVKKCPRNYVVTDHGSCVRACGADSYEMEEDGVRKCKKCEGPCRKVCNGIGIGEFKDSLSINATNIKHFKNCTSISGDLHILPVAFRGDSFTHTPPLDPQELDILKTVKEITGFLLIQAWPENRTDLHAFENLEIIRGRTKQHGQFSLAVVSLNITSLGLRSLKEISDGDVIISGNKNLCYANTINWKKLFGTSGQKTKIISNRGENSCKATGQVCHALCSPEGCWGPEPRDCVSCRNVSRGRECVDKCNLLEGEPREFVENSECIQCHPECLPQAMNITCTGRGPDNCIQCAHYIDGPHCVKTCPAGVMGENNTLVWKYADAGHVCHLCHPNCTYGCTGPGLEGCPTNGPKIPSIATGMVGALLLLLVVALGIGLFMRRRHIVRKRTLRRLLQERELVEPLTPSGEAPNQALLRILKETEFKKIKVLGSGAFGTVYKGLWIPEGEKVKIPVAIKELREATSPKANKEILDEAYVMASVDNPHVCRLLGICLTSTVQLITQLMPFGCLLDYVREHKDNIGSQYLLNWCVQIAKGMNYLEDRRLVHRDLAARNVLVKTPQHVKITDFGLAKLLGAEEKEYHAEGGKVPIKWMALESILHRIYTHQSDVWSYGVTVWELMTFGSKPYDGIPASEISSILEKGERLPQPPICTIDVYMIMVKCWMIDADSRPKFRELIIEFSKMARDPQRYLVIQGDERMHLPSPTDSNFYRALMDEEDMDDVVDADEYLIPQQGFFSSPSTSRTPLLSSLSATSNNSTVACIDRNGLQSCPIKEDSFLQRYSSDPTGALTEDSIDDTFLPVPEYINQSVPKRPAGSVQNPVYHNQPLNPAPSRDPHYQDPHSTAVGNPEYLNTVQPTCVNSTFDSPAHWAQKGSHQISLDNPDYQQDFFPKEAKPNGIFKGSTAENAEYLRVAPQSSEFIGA
ErbB2 V777L, sequence (P04626 23-1255 V777L): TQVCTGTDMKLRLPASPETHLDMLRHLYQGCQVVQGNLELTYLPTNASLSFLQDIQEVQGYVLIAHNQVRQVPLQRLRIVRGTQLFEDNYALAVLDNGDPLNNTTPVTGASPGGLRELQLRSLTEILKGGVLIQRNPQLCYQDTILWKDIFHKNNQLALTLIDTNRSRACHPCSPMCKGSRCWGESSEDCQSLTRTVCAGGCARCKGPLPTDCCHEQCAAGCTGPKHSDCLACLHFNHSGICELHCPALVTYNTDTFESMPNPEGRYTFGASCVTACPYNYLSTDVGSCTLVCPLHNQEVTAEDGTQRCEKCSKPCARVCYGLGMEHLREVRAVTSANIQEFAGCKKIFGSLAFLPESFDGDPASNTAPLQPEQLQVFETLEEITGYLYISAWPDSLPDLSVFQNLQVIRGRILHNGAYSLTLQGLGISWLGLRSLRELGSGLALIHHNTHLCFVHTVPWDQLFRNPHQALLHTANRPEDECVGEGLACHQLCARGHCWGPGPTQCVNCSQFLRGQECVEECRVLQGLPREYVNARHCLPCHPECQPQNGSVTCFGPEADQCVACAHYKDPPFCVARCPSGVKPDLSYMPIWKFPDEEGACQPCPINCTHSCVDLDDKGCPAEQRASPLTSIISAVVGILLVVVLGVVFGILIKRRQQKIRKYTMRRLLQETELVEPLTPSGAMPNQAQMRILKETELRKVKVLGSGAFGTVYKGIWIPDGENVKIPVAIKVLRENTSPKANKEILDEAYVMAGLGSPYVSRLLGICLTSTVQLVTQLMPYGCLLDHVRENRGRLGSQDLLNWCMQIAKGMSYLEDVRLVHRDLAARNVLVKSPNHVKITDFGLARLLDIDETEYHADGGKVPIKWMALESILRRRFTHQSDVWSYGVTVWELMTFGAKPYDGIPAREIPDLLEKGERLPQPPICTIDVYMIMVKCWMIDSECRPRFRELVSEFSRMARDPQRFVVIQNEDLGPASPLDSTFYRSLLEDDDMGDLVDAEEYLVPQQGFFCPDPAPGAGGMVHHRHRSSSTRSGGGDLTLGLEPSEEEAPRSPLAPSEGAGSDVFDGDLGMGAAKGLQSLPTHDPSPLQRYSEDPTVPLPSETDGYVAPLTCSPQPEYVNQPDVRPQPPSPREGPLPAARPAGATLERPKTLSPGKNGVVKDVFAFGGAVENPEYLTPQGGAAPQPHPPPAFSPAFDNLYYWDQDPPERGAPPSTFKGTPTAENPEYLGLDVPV

`C=CC(=O)N[C@@H]1CCCN(c2ccc3ncnc(Nc4cc(C)c(Oc5ccc6c(c5)nnn6C)cc4OC)c3n2)C1` [Compound 274, (R)-N-(1-(4-((2-methoxy-5-methyl-4-((1-methyl-1H-benzo[d][1,2,3]triazol-5-yl)oxy)phenyl)amino)pyrido[3,2-d]pyrimidin-6-yl)piperidin-3-yl)acrylamide]: the IC50 at EGFR WT was not below 1000 nM; against ErbB2 V777L, 500 to 1000 nM.
For `C=CC(=O)N1CCN(c2ncc3ncnc(Nc4ccc(Oc5ccc6c(c5)nnn6C)c(C)c4)c3n2)C[C@H]1CC` [Compound 119, (R)-1-(2-ethyl-4-(8-((3-methyl-4-((1-methyl-1H-benzo[d][1,2,3]triazol-5-yl)oxy)phenyl)amino)pyrimido[5,4-d]pyrimidin-2-y1)piperazin-1-yl)prop-2-en-1-one], in that order: 500 to 1000 nM and 100 to 500 nM.
As for `C=CC(=O)N[C@H]1CN(c2ccc3ncnc(Nc4ccc(Oc5ccc6c(c5)nnn6C)c(C)c4F)c3n2)CC[C@@H]1F` [Compound 296, N-((3S,4S)-4-fluoro-1-(4-((2-fluoro-3-methyl-4-((1-methyl-1H-benzo[d][1,2,3]triazol-5-yl)oxy)phenyl)amino)pyrido[3,2-d]pyrimidin-6-yl)piperidin-3-yl)acrylamide], the IC50 against EGFR WT and on ErbB2 V777L was 100 to 500 nM throughout.
In the case of `C=CC(=O)N1CC2CN(c3ncc4ncnc(Nc5ccc(Oc6ccc7c(c6)nnn7C)c(C)c5)c4n3)CC2C1` (centres unmarked) [Compound 27, 1-(5-(8-((3-methyl-4-((1-methyl-1H-benzo[d][1,2,3]triazol-5-yl)oxy)phenyl)amino)pyrimido[5,4-d]pyrimidin-2-yl)hexahydropyrrolo[3,4-c]pyrrol-2(1H)-y1)prop-2-en-1-one], the values for the IC50 against EGFR WT and on ErbB2 V777L were not below 1000 nM and 100 to 500 nM, respectively.
On the same counts, the results for `C=CC(=O)N1CCN(c2ccc3ncnc(Nc4ccc(Oc5ccc6c(c5)ncn6C(F)F)c(C)c4F)c3n2)C[C@H]1C` [Compound 253, (R)-1-(4-(4-((4-((1-(difluoromethyl)-1H-benzo[d]imidazol-5-yl)oxy)-2-fluoro-3-methylphenyl)amino)pyrido[3,2-d]pyrimidin-6-yl)-2-methylpiperazin-1-yl)prop-2-en-1-one] are 100 to 500 nM and 50 to 100 nM.
For `C=CC(=O)N1C2CC1CN(c1ncc3ncnc(Nc4ccc(Oc5ccc6c(c5)nnn6C)c(C)c4)c3n1)C2` [Compound 60, 1-(3-(8-((3-methyl-4-((1-methyl-1H-benzo[d][1,2,3]triazol-5-yl)oxy)phenyl)amino)pyrimido[5,4-d]pyrimidin-2-yl)-3,6-diazabicyclo[3.1.1]heptan-6-yl)prop-2-en-1-one], in that order: 100 to 500 nM and 50 to 100 nM.
On the same counts, the results for `C=CC(=O)N1CCN(c2ncc3ncnc(Nc4ccc(Oc5ccc6c(c5)nnn6C)c(C)c4)c3n2)C[C@H]1C1CC1` [Compound 196, (R)-1-(2-cyclopropyl-4-(8-((3-methyl-4-((1-methyl-1H-benzo[d][1,2,3]triazol-5-yl)oxy)phenyl)amino)pyrimido[5,4-d]pyrimidin-2-yl)piperazin-1-yl)prop-2-en-1-one] are 500 to 1000 nM and 100 to 500 nM.
For `C=CC(=O)N1CCN(c2ccc3ncnc(Nc4ccc(Oc5ccc6c(c5)nnn6C)c(C)c4F)c3n2)C[C@H]1C(C)C` [Compound 259, (R)-1-(4-(4-((2-fluoro-3-methyl-4-((1-methyl-1H-benzo[d][1,2,3]triazol-5-yl)oxy)phenyl)amino)pyrido[3,2-d]pyrimidin-6-yl)-2-isopropylpiperazin-1-yl)prop-2-en-1-one], the IC50 is not below 1000 nM at EGFR WT and 500 to 1000 nM at ErbB2 V777L.
On the same counts, the results for `C=CC(=O)N1CCC12CCN(c1ncc3ncnc(Nc4ccc(Oc5ccc6c(c5)nnn6C)c(C)c4)c3n1)C2` (centres unmarked) [Compound 222, 1-(6-(8-((3-methyl-4-((1-methyl-1H-benzo[d][1,2,3]triazol-5-yl)oxy)phenyl)amino)pyrimido[5,4-d]pyrimidin-2-yl)-1,6-diazaspiro[3.4]octan-1-yl)prop-2-en-1-one] are 50 to 100 nM and 50 to 100 nM.
For `Cc1cc(Nc2ncnc3cnc(N4CCN(C(=O)/C=C/CN5CCOCC5)CC4)nc23)ccc1Oc1ccc2c(c1)nnn2C` [Compound 53, (E)-1-(4-(8-((3-methyl-4-((1-methyl-1H-benzo[d][1,2,3]triazol-5-yl)oxy)phenyl)amino)pyrimido [5,4-d]pyrimidin-2-yl)piperazin-1-yl)-4-morpholinobut-2-en-1-one formate], in that order: 100 to 500 nM and 100 to 500 nM.
On the same counts, the results for `C=CC(=O)N1CCCC(c2ccc3ncnc(Nc4ccc(Oc5ccc6c(c5)nnn6C)c(C)c4)c3n2)C1` (centres unmarked) [Compound 398, 1-(3-(4-((3-methyl-4-((1-methyl-1H-benzo[d][1,2,3]triazol-5-yl)oxy)phenyl)amino)pyrido[3,2-d]pyrimidin-6-yl)piperidin-1-yl)prop-2-en-1-one] are 100 to 500 nM and 50 to 100 nM.
On to `C=CC(=O)N1CC[C@H](N(C)c2ccc3ncnc(Nc4ccc(Oc5ccc6c(c5)nnn6C)c(C)c4)c3n2)[C@@H]1C` [Compound 265, 1-((2S,3S)-2-methyl-3-(methyl(4-((3-methyl-4-((1-methyl-1H-benzo[d][1,2,3]triazol-5-yl)oxy)phenyl)amino)pyrido[3,2-d]pyrimidin-6-yl)amino)pyrrolidin-1-yl)prop-2-en-1-one], for which the half-inhibitory concentration (IC50) against EGFR WT and against ErbB2 V777L was 100 to 500 nM in each case.
For `C=CC(=O)N1CCC(Oc2ncc3ncnc(Nc4ccc(Oc5ccn6ncnc6c5)c(C)c4)c3n2)C1` (centres unmarked) [Compound 377, 1-(3-((8-((4-([1,2,4]triazolo[1,5-a]pyridin-7-yloxy)-3-methylphenyl)amino)pyrimido[5,4-d]pyrimidin-2-yl)oxy)pyrrolidin-1-yl)prop-2-en-1-one], the half-maximal inhibitory concentration (IC50) against EGFR WT and against ErbB2 V777L was 100 to 500 nM throughout.
With `C=CC(=O)N[C@@H]1C[C@H](F)CN(c2ccc3ncnc(Nc4ccc(Oc5ccc6c(c5)nnn6C)c(C)c4F)c3n2)C1` [Compound 298, N-((3R,5S)-5-fluoro-1-(4-((2-fluoro-3-methyl-4-((1-methyl-1H-benzo[d][1,2,3]triazol-5-yl)oxy)phenyl)amino)pyrido[3,2-d]pyrimidin-6-yl)piperidin-3-yl)acrylamide], the IC50 against EGFR WT was less than 50 nM; at ErbB2 V777L it was 50 to 100 nM.
On the same counts, the results for `C=CC(=O)N1CCCN(c2ccc3ncnc(Nc4ccc(Oc5ccn6ncnc6c5)c(C)c4)c3n2)CC1` [Compound 357, 1-(4-(4-((4-([1,2,4]triazolo[1,5-a]pyridin-7-yloxy)-3-methylphenyl)amino)pyrido[3,2-d]pyrimidin-6-yl)-1,4-diazepan-1-yl)prop-2-en-1-one] are 500 to 1000 nM and 50 to 100 nM.
For `C=CC(=O)N1CCN(c2ccc3ncnc(Nc4ccc(Oc5ccc6c(c5)ncn6C(F)F)c(C)c4F)c3n2)CC1(C)C` [Compound 321, 1-(4-(4-((4-((1-(difluoromethyl)-1H-benzo[d]imidazol-5-yl)oxy)-2-fluoro-3-methylphenyl)amino)pyrido[3,2-d]pyrimidin-6-y1)-2,2-dimethylpiperazin-1-yl)prop-2-en-1-one], the results for the IC50 at EGFR WT and against ErbB2 V777L were 500 to 1000 nM and 100 to 500 nM, respectively.
